Tests used:
rats = test: Reversal of the effect of the mGluR2 PAM JNJ-42153605 on scopolamine-induced hyperlocomotion; format: in vivo; details: Rattus norvegicus, 1 h, test compound 60 min before recording, criterion total distance >1500 cm
Procedure: 2) Reversal of the Effect of the mGluR2 PAM JNJ-42153605 on Scopolamine-Induced Hyperlocomotion Apparatus
Motor activity was measured in microprocessor-based motor activity arenas (closed gray PVC cylinders with a height of 39 cm and a diameter of 31 cm). Each arena was placed on an infrared LED (8×8 LEDs) lit box (white PVC squared box; 40×40 cm^2; height 12.5 cm. An infrared-sensitive tube camera and a white light source were mounted to the ceiling above the observation chamber to track the animal. The total distance traveled (cm) was recorded and analyzed using the Noldus Ethovision XT Video Tracking System (Version 7.0.418; Noldus, Wageningen, The Netherlands). The intensity of the light within the activity cages (measured in the centre at the level of the floor) ranged between 4 and 8 LUX.
The rats were pretreated with test compound or vehicle at 60 min before the start of the activity recordings and placed into individual cages. The rats were challenged with JNJ-42153605 (3-(cyclopropylmethyl)-7-(4-phenylpiperidin-1-yl)-8-(trifluoromethyl)[1,2,4]triazolo[4,3-a]pyridine; WO2010/130424; Cid et al. J. Med. Chem. 2012, 55, 8770-8789) (20 mg/kg, i.v.) 30 min before the start of the activity recording combined with scopolamine (0.16 mg/kg, i.v.) just before the start of the activity measurements Immediately after the injection of scopolamine, the rats were placed into the activity monitors and total distance travelled over the first 30 min was measured.
Animals receiving the combination of JNJ-42153605 and scopolamine (n=433) almost always travelled a distance of less than 1500 cm (<1500 cm) (only 2.5% of the control rats travelled a distance of more than 1500 cm (>1500 cm)). On the other hand, animals challenged with scopolamine alone (n=215) always travelled a total distance of more than 1500 cm (>1500 cm) and almost always (in 95.8% of the rats) a distance of more than 4400 cm (>4400 cm). […] For reversal of the inhibitory effect of JNJ-42153605 on the scopolamine-induced hyperlocomotion, two all-or-none criteria were adopted: (1) reversal: total distance >1500 cm; (2) normalization: total distance >4400 cm.

human mGlu2 receptor = molecular target: T1, human mGlu2 receptor (Homo sapiens, UniProt Q14416); test: [35S]GTPγS binding assay (mGluR2 negative allosteric modulation); format: biochemical; details: for IC50: read-out: GTPγS - hmGluR2 anGT pIC50 (converted); for Emax: relative maximal effect: maximal % inhibition relative to the control glutamate response, read-out: GTPγS - hmGluR2 anGT Emax
T1 construct: expressed in transfected cells; host or cells: CHO cells (membrane preparation)
In short: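 Negative allosteric modulation read as [35S]GTPγS (0.1 nM) incorporation over 30 min at 30 °C, expressed as % of the response to an EC80-equivalent glutamate concentration. Assay used 7 μg human mGlu2 CHO membrane protein in HEPES pH 7.4 buffer with NaCl, MgCl2, GDP and saponin; bound label collected by filtration.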

[1] = membranes from CHO cells transfected with human mGlu2 receptor, glutamate 60 μM, pIC50 = −log IC50 (M)

T1 sequence (Q14416 19-872): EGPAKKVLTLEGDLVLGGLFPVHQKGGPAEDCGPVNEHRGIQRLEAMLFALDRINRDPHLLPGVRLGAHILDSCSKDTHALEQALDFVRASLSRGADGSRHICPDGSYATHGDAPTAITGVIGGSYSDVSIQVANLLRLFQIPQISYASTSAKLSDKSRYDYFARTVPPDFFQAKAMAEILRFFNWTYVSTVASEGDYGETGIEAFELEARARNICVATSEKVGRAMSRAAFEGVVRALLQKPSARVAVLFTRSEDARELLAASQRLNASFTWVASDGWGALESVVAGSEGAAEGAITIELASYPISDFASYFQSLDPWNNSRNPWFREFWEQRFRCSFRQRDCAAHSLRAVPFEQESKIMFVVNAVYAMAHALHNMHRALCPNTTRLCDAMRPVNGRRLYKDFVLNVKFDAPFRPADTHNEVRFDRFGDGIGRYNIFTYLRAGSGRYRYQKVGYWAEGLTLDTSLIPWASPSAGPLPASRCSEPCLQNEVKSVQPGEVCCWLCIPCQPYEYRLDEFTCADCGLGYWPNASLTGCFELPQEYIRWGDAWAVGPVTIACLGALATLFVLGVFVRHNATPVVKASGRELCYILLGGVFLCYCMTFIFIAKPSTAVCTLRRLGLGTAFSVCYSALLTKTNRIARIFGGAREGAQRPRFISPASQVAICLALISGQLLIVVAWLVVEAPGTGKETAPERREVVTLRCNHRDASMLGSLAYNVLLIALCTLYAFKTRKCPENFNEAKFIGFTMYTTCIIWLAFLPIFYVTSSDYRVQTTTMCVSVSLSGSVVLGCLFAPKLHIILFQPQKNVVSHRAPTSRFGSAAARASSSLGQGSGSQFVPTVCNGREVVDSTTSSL

Structure (SMILES)	ED50 (rats; Route PO) [mg/kg]	IC50 (human mGlu2 receptor; [1]) [M]	Emax (human mGlu2 receptor) [%]	melting point	ED50 (rats; Route SC) [mg/kg]	GTPγS - hmGluR2 anGT pIC50 (human mGlu2 receptor; [1])
Cc1cc(-c2cnn3c2C(=O)N(c2ccc(C(F)(F)F)c(Cl)c2)C[C@@H]3C)ccn1 [compound 3]	1.99	1.78e-09	106	–	–	–
Cc1cc(-c2cnn3c2C(=O)N(c2ccc(S(F)(F)(F)(F)F)cc2)C[C@@H]3C)ccn1 [compound 4]	1.26	3.31e-09	104	247 °C	–	–
Cc1cc(-c2cnn3c2C(=O)N(c2ccc(Cl)c(Cl)c2)C[C@@H]3C)ccn1 [compound 6]	0.8	5.01e-09	106	–	–	–
Cc1cc(-c2cnn3c2C(=O)N(c2ccc(Cl)c(C(F)(F)F)c2)C[C@@H]3C)ccn1 [compound 9]	≥ 2.5	1.05e-08	103	143.6 °C	–	–
Cc1cc(-c2cnn3c2C(=O)N(c2ccc(C(F)(F)F)c(F)c2)C[C@@H]3C)ccn1 [compound 10]	0.79	1.17e-08	104	–	–	–
COc1cc(N2C[C@H](C)n3ncc(-c4ccnc(C)c4)c3C2=O)ccc1C(F)(F)F [compound 12]	1.25	1.95e-08	104	–	–	–
Cc1cc(-c2cnn3c2C(=O)N(c2ccc(C(F)(F)F)c(C#N)c2)C[C@@H]3C)ccn1 [compound 13]	7.94	2.95e-08	103	128.9 °C	–	–
Cc1cc(-c2cnn3c2C(=O)N(c2ccc(C(F)(F)F)cc2)C[C@@H]3C)cc(C)n1 [compound 14]	5	2.4e-08	104	–	–	–
Cc1cc(-c2cnn3c2C(=O)N(c2cccc(Cl)c2)C[C@@H]3C)ccn1 [compound 16]	–	5.13e-08	102	–	≥ 10	–
CCOc1cc(N2C[C@H](C)n3ncc(-c4ccnc(C)c4)c3C2=O)ccc1Cl [compound 18]	≥ 10	5.25e-08	102	98.5 °C	–	–
COc1cc(N2C[C@H](C)n3ncc(-c4ccnc(C)c4)c3C2=O)ccc1Cl [compound 19]	≥ 10	6.92e-08	105	137 °C	–	–
Cc1cc(-c2cnn3c2C(=O)N(c2ccc(C(F)(F)F)c(Cl)c2)C[C@@H]3C)cc(C)n1 [compound 43]	1.26	2.88e-09	107	–	–	–
Cc1cc(-c2cnn3c2C(=O)N(c2ccc(Cl)c(Cl)c2)C[C@@H]3C)cc(C)n1 [compound 47]	1.99	6.46e-09	105	–	–	–
CNc1cc(-c2cnn3c2C(=O)N(c2ccc(C(F)(F)F)c(Cl)c2)C[C@@H]3C)cc(C#N)n1 [compound 95]	> 2.5	1.78e-09	110	210.61 °C (dec.)	–	–
C[C@H]1CN(c2ccc(C(F)(F)F)cc2)C(=O)c2c(-c3ccnc(C(F)(F)F)c3)cnn21 [compound 99]	≥ 2.5	1.45e-08	108	126.4 °C	–	–
C[C@H]1CN(c2ccc(C(F)(F)F)c(Cl)c2)C(=O)c2c(-c3ccnc(C#N)c3)cnn21 [compound 100]	> 10	–	109	144.9 °C	–	8.16

Structure (SMILES)	ED50 (rats; Route PO) [mg/kg]	IC50 (human mGlu2 receptor; [1]) [M]	Emax (human mGlu2 receptor) [%]	melting point	ED50 (rats; Route SC) [mg/kg]	GTPγS - hmGluR2 anGT pIC50 (human mGlu2 receptor; [1])
C[C@H]1CN(c2ccc(C(F)(F)F)cc2)C(=O)c2c(-c3ccnc(N4CCC4)c3)cnn21 [compound 102]	≥ 2.5	8.32e-09	107	129.8 °C	–	–
CNc1cc(-c2cnn3c2C(=O)N(c2ccc(C(F)(F)F)c(Cl)c2)C[C@@H]3C)ccn1 [compound 103]	0.96	–	–	–	–	–
COc1cc(-c2cnn3c2C(=O)N(c2ccc(C(F)(F)F)c(Cl)c2)C[C@@H]3C)ccn1 [compound 104]	≥ 2.5	3.72e-09	108	–	–	–
C[C@H]1CN(c2ccc(C(F)(F)F)cc2)C(=O)c2c(-c3ccnc(C#N)c3)cnn21 [compound 127, 4-[(7S)-7-Methyl-4-oxo-5-[4-(trifluoromethyl)phenyl]-6,7-dihydropyrazolo[1,5-a]pyrazin-3-yl]pyridine-2-carbonitrile]	1.99	2.75e-08	103	155.1 °C	–	–
COc1cc(-c2cnn3c2C(=O)N(c2ccc(Cl)c(Cl)c2)C[C@@H]3C)ccn1 [compound 142]	1.99	6.61e-09	105	–	–	–
Cc1cc(-c2cnn3c2C(=O)N(c2ccc(OC(F)(F)F)cc2)C[C@@H]3C)ccn1 [compound 152]	1.99	1e-08	105	105.4 °C	–	–
C[C@H]1CN(c2ccc(C(F)(F)F)cc2)C(=O)c2c(-c3ccnc(N(C)C)c3)cnn21 [compound 166]	0.5	2.51e-09	102	99.8 °C	≥ 10	–
COc1cc(-c2cnn3c2C(=O)N(c2ccc(C(F)(F)F)c(OC)c2)C[C@@H]3C)ccn1 [compound 180]	≥ 2.5	1.32e-08	106	76.8 °C	–	–
CNc1cc(-c2cnn3c2C(=O)N(c2ccc(C(F)(F)F)c(F)c2)C[C@@H]3C)ccn1 [compound 182]	1.99	8.32e-09	106	67.8 °C	–	–
Cc1cc(-c2cnn3c2C(=O)N(c2ccc(SC(F)(F)F)cc2)C[C@@H]3C)ccn1 [compound 236]	> 2.5	7.24e-09	105	–	–	–
CNc1cc(-c2cnn3c2C(=O)N(c2ccc(C(F)(F)F)cc2)C[C@@H]3C)cc(OC)n1 [compound 242]	> 2.5	1.29e-08	110	–	–	–
CNc1cc(-c2cnn3c2C(=O)N(c2ccc(C(F)(F)F)c(C)c2)C[C@@H]3C)ccn1 [compound 251]	> 0.63	6.31e-09	116	–	–	–
CCNc1cc(-c2cnn3c2C(=O)N(c2ccc(C(F)(F)F)c(Cl)c2)C[C@@H]3C)ccn1 [compound 255]	0.79	1.51e-09	107	–	–	–
CCNc1cc(-c2cnn3c2C(=O)N(c2ccc(C(F)(F)F)c(C)c2)C[C@@H]3C)ccn1 [compound 256]	≥ 2.5	3.63e-09	108	–	–	–
CCNc1cc(-c2cnn3c2C(=O)N(c2ccc(Cl)c(Cl)c2)C[C@@H]3C)ccn1 [compound 257]	≥ 2.5	3.63e-09	108	–	–	–
